Results published in publication PMC6327993, “Synthesis carbonic anhydrase enzyme inhibition and antioxidant activity of novel benzothiazole derivatives incorporating glycine, methionine, alanine, and phenylalanine moieties” (Journal of Enzyme Inhibition and Medicinal Chemistry, 2018).

Assays:
[1] = target: hCA I (Homo sapiens, UniProt P00915); experiment: stopped flow CO2 hydrase assay, hCA I; type: biochemical; settings: mean from three different assays, errors ±5–10%
Protocol: (§1) An applied photophysics stopped-flow instrument has been used for assaying the CA catalysed CO2 hydration activity by using method of Khalifah[34]. Phenol red (at a concentration of 0.2 mM) has been used as an indicator, working at the absorbance maximum of 557 nm, with 20 mM HEPES (pH 7.5) as buffer, and 20 mM Na2SO4 (for maintaining constant the ionic strength), following the initial rates of the CA-catalysed CO2 hydration reaction for a period of 10–100 s. The CO2 concentrations ranged from 1.7 to 17 mM for the determination of the kinetic parameters and inhibition constants. […] The uncatalysed rates were determined in the same manner and subtracted from the total observed rates. Stock solutions of inhibitor (0.1 mM) were prepared in distilled–deionised water and dilutions up to 0.01 nM were done thereafter with the assay buffer. Inhibitor and enzyme solutions were preincubated together for 15 min at room temperature prior to assay, in order to allow the formation of the E–I complex. The inhibition constants were obtained by non-linear least-square methods using PRISM (www.graphpad.com), and non-linear least squares methods, values representing the mean of at least three different determinations, as described earlier by us[35–39].

[2] = target: hCA II (Homo sapiens, UniProt P00918); experiment: stopped flow CO2 hydrase assay, hCA II; type: biochemical; settings: mean from three different assays, errors ±5–10%, read-out: KI hCAII
Protocol: as §1

[3] = target: hCA V (Homo sapiens, UniProt P35218); experiment: stopped flow CO2 hydrase assay, hCA V; type: biochemical; settings: mean from three different assays, errors ±5–10%
Protocol: as §1

[4] = target: hCA XIII (Homo sapiens, UniProt Q8N1Q1); experiment: stopped flow CO2 hydrase assay, hCA XIII; type: biochemical; settings: mean from three different assays, errors ±5–10%
Protocol: as §1

[5] = DPPH radical scavenging activity
Protocol: Antioxidant activity was determined based on the ability of the antioxidants to act as radical scavengers towards the stable free radical, 1,1-diphenyl-2-picrylhydrazyl (DPPH). As detailed by Yang et al.[40], 1 ml of antioxidant solution (solubilised in ethanol) was added to 3 ml of a 0.1 mM ethanolic solution of DPPH. After 30 min at ambient temperature in darkness, absorbance readings were taken at 517 nm. Inhibition (%) was calculated using the equation [1–(As−Ao)/Ab]×100 where As is the absorbance reading for samples containing antioxidant, Ao is the absorbance of the antioxidant in pure methanol and Ab corresponded to the absorbance of the DPPH solution.

Chain of hCA XIII (Q8N1Q1 whole entry): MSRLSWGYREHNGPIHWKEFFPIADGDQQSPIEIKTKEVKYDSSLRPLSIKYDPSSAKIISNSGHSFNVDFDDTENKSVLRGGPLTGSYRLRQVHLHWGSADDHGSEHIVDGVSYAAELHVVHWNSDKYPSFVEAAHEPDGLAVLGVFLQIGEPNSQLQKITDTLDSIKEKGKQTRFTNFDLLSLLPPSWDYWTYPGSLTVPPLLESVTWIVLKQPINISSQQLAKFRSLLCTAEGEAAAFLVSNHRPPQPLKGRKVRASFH
Chain of hCA I (P00915 whole entry): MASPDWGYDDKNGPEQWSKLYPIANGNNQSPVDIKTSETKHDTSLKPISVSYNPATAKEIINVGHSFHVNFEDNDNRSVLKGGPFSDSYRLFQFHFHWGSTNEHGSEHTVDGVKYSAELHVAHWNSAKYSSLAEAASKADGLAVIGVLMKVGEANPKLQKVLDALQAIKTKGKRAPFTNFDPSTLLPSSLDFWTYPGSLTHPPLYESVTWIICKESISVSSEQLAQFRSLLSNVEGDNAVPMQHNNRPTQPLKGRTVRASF
Chain of hCA V (P35218 39-305): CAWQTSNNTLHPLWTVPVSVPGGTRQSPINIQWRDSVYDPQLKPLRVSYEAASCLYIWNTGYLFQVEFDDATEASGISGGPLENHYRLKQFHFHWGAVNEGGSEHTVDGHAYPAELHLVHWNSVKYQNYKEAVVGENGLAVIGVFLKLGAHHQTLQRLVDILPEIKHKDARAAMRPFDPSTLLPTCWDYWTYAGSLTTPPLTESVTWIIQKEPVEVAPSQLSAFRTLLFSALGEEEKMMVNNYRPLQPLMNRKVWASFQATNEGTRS

Molecule | Ki [1] [µM] | Ki [2] [µM] | Ki [3] [µM] | Ki [4] [µM] | Antioxidant activity, % ([5]; 12.5 μg/ml) [%] | Antioxidant activity, % ([5]; 25 μg/ml) [%] | Antioxidant activity, % ([5]; 37.5 μg/ml) [%] | Antioxidant activity, % ([5]; 62.5 μg/ml) [%] | Antioxidant activity, % ([5]; 125 μg/ml) [%] | melting point [°C]
CSCCC(NC(=O)OCc1ccccc1)C(=O)Nc1ccc(-c2nc3ccc(C)cc3s2)cc1 (centres unmarked) [Compound 13, Benzyl (1-((4–(6-methylbenzo[d]thiazol-2-yl)phenyl)amino)-4-(methylthio)-1-oxobutan-2-yl)carbamate] | > 100 | 39.1 | 41.2 | 84.9 | 5 | 6.7 | 6.1 | 7.1 | 8.2 | 200 to 201
Cc1ccc2nc(NC(=O)CNC(=O)OCC3c4ccccc4-c4ccccc43)sc2c1 [Compound 9, (9H-Fluoren-9-yl)methyl (2-((6-methylbenzo[d]thiazol-2-yl)amino)-2-oxoethyl)carbamate] | 71.9 | > 100 | 7.3 | > 100 | 4 | 4.6 | 5.3 | 5.8 | 6.4 | 220 to 221
Cc1cccc2sc(NC(=O)CNC(=O)OCC3c4ccccc4-c4ccccc43)nc12 [Compound 11, (9H-Fluoren-9-yl)methyl (2-((4-methylbenzo[d]thiazol-2-yl)amino)-2-oxoethyl)carbamate] | > 100 | 88.1 | 74.5 | > 100 | 5 | 6.7 | 6.9 | 7.1 | 8.2 | 218 to 219
Tert-butyl (4–(6-methylbenzo[d]thiazol-2-yl)-3-oxo-1-phenylbutan-2-yl)carbamate [Compound 4] | > 100 | > 100 | > 100 | > 100 | 0 | 5.7 | 5.8 | 9.6 |  | 
CCOc1ccc2nc(NC(=O)CNC(=O)OC(C)(C)C)sc2c1 [Compound 7] | > 100 | > 100 | 60 | > 100 | 13.0 | 15.0 | 22.5 | 24.8 | 28.3 | 171 to 172
CCOc1ccc2nc(NC(=O)CNC(=O)OCc3ccccc3)sc2c1 [Compound 5] | > 100 | 82.3 | > 100 | > 100 | 12.0 | 15.0 | 25.0 | 32.0 | 38.0 | 214 to 215
COc1ccc(O)c(C(C)(C)C)c1 [BHA, reference compound] |  |  |  |  | 61.1 | 63.0 | 67.5 | 71.0 | 72.4 | 
Cc1ccc2nc(NC(=O)CNC(=O)OC(C)(C)C)sc2c1 [Compound 2] | > 100 | 74.8 | 65.5 | > 100 | 0 | 0 | 3.9 | 4.6 | 6.1 | 212 to 213
Benzyl (3–(6-(methylsulfonyl)benzo[d]thiazol-2-yl)-2-oxopropyl)carbamate [Compound 8] | 89.9 | > 100 | 9 | > 100 | 0 | 2.1 | 6.6 | 19.2 | 20.7 | 
Benzyl (4–(6-ethoxybenzo[d]thiazol-2-yl)-3-oxo-1-phenylbutan-2-yl)carbamate [Compound 6] | > 100 | > 100 | > 100 | > 100 | 11.0 | 14.0 | 23.0 | 32.0 | 37.0 | 
Cc1c(C)c2c(c(C)c1O)CC[C@@](C)(CCC[C@H](C)CCC[C@H](C)CCCC(C)C)O2 [α-Toc., α-tocopherol, reference compound] |  |  |  |  | 62.9 | 63.4 | 68.4 | 72.8 | 74.0 | 
Cc1ccc2nc(NC(=O)CNC(=O)OCc3ccccc3)sc2c1 [Compound 1] | 4.3 | 32.1 | 4.3 | 94.6 | 0 | 0 | 0 | 11.4 | 12.5 | 213 to 214
Cc1ccc2nc(-c3ccc(NC(=O)C(Cc4ccccc4)NC(=O)OCc4ccccc4)cc3)sc2c1 (centres unmarked) [Compound 12, Benzyl (1-((4–(6-methylbenzo[d]thiazol-2-yl)phenyl)amino)-1-oxo-3-phenylpropan-2-yl)carbamate] | > 100 | 37 | > 100 | > 100 | 0 | 3 | 3.4 | 5.8 | 6.1 | 227 to 228
Tert-butyl (4–(6-methylbenzo[d]thiazol-2-yl)-3-oxobutan-2-yl)carbamate [Compound 3] | 90.5 | 50.4 | 86.9 | > 100 | 3.3 | 3.4 | 5.3 | 7.5 | 7.7 | 
CS(=O)(=O)c1ccc2nc(NC(=O)CNC(=O)OCC3c4ccccc4-c4ccccc43)sc2c1 [Compound 10, (9H-Fluoren-9-yl)methyl(2-((6-(methylsulfonyl)benzo[d]thiazol-2-yl)amino)-2-oxoethyl)carbamate] | 7.1 | > 100 | 2.9 | > 100 | 0 | 0 | 22.5 | 23.1 | 24.5 | 
